# Laboratory results published in patent US20240197823A1, “CATIONIC ANTIMICROBIAL PEPTIDES AND USES THEREOF” (priority 2021, published 2024).
# Where two headings read alike, the source gives them in different places. Positions of bridges follow the written chain, without caps; N, C: chain ends. Non-standard residues stand in square brackets, D forms with d. Residues, ends and D or L forms follow the SMILES beside them. No end group written: not given here. *: point of attachment. Heptanoyl(5-Me) = CCC(C)CCCC(=O)*; Dab = NCC[C@H](N)C(=O)O
# Legend:
# S. aureus = experiment: MIC growth inhibition assay in MHB2; type: cell-based, Staphylococcus aureus
# Protocol: (§1) Bacteria. Bacterial clinical isolates, used for initial screening and in previous studies [Greber K E et al., 2017], were anonymously provided by the clinical microbiology laboratory of the University of Pittsburgh medical Center. The panel used for secondary screening was from CDC (Table 4), with resistance profiles data. Bacteria are stored in lock-secured −80° C. freezer and typically retrieved by obtaining single colonies on agar plates prior for subsequent liquid broth cultures. Suspensions of test bacteria were prepared from log phase of growth by diluting overnight cultures at 1:100 with fresh cation-adjusted MHB (MHB2, Millipore Sigma, USA) and incubating for additional 3-4 hours. Bacteria were spun at 3000×g for 10 minutes and the pellet resuspended in test condition media (Millipore Sigma, USA) to determine bacterial turbidity using a Den-1B densitometer (Grant Instruments, USA) at 0.5 McFarland (unit of bacterial density) corresponding to […].
# (§2) Antibacterial assays. To examine antibacterial activity, this study used minor modifications of a standard growth inhibition assay endorsed by the Clinical and Laboratory Standards Institute (CLSI), as previously described [Greber K E et al., 2017]. Bacteria were incubated with each of the indicated peptides in MHB2. The bacterial cells were kept in an incubator for 18 hours at 37° C., which is linked to a robotic system that feeds a plate reader every hour with one of 8×96-well plates. This set-up allows the collection of growth kinetic data at A 570 (absorbance at 570 nm) to examine growth inhibition in real time (BioTek Instruments, USA). […] To assess bactericidal properties of the peptide, the assay was modified by using 15% fetal bovine serum (FBS, for a more physiologically relevant test condition) mixed with 25% MHB2 and 60% PBS. Bacterial cells (colony forming unit/mL or CFU/mL) were enumerated after incubating treated bacteria for 3 hours and plating serially diluted samples on broth agar medium at 37° C. overnight. […] For killing kinetics, we slightly modified the bactericidal assay to examine bacterial killing at the MBC (or 2×MBC) as a function of time for up to 3 hours. Data were analyzed using GraphPad Prism software.
# E. Faecium = experiment: MIC growth inhibition assay in MHB2; type: cell-based, Enterococcus faecium
# Protocol: as §1, §2
# Enterobacter spp = experiment: MIC growth inhibition assay in MHB2; type: cell-based, Enterobacter spp: EA (aerogenes), EC (cloacae)
# Protocol: as §1, §2
# P. aeruginosa = experiment: microbe, parasite or virus in culture
# Protocol: as §1, §2
# E. coli = experiment: microbe, parasite or virus in culture
# Protocol: as §1, §2
# A. baumannii = experiment: microbe, parasite or virus in culture
# Protocol: as §1, §2
# [1] = test system: MDR panel of gram-negative (GNB) and -positive (GPB) bacterial isolates classified as ESKAPE pathogens
# Protocol: as §1
# Antibacterial assays. To examine antibacterial activity, this study used minor modifications of a standard growth inhibition assay endorsed by the Clinical and Laboratory Standards Institute (CLSI), as previously described [Greber K E et al., 2017]. Bacteria were incubated with each of the indicated peptides in MHB2. The bacterial cells were kept in an incubator for 18 hours at 37° C., which is linked to a robotic system that feeds a plate reader every hour with one of 8×96-well plates. This set-up allows the collection of growth kinetic data at A 570 (absorbance at 570 nm) to examine growth inhibition in real time (BioTek Instruments, USA). […] To assess bactericidal properties of the peptide, the assay was modified by using 15% fetal bovine serum (FBS, for a more physiologically relevant test condition) mixed with 25% MHB2 and 60% PBS. Bacterial cells (colony forming unit/mL or CFU/mL) were enumerated after incubating treated bacteria for 3 hours and plating serially diluted samples on broth agar medium at 37° C. overnight. […] Data were analyzed using GraphPad Prism software.
# K. pneumoniae = experiment: MIC growth inhibition assay in MHB2; type: cell-based, klebsiella pneumoniae
# Protocol: as §1, §2
# [2] = test system: MDR clinical strains of ESKAPE pathogens and E. coli provided by the CDC (AR isolates panel); experiment: Advanced testing, MIC against CDC AR isolates panel; type: cell-based; details: colistin-resistant strains
# Protocol: as §1, §2
molecule,measurement,setting,value
Cc1nnc(SCC2=C(C(=O)O)N3C(=O)[C@@H](NC(=O)Cn4cnnn4)[C@H]3SC2)s1 [Cefa],MIC,S. aureus; strain SA12212,16 µM
same,MIC,S. aureus; strain SA18710,16 µM
same,MIC,S. aureus; strain SA49775,2 µM
same,MIC,S. aureus; strain SA-US300,8 µM
same,MIC,E. Faecium; strain EF23614,>16 µM
same,MIC,E. Faecium; strain EF24670,>16 µM
same,MIC,E. Faecium; strain EF26215,4 µM
same,MIC,E. Faecium; strain EF26692,4 µM
"CCC(C)CCCC(=O)N[C@@H](CCN)C(=O)N[C@H](C(=O)N[C@@H](CCN)C(=O)N[C@H]1CCNC(=O)[C@H]([C@@H](C)O)NC(=O)[C@H](CCN)NC(=O)[C@H](CCN)NC(=O)[C@H](CC(C)C)NC(=O)[C@@H](CC(C)C)NC(=O)[C@H](CCN)NC1=O)[C@@H](C)O (stereo partly drawn) [Colistin, colistin, reference compound] ({Heptanoyl(5-Me)}-[Dab]T[Dab][Dab][Dab][dL]L[Dab][Dab]T; lactam 4-C)",MIC,"S. aureus; Staphylococcus aureus, strain SA461, CDC, MHB2",> 16 µM
same,MIC,"S. aureus; strain SA462, CDC, MHB2",>16 µM
same,MIC,"S. aureus; strain SA463, CDC, MHB2",>16 µM
same,MIC,"S. aureus; strain SA561, CDC, MHB2",>16 µM
same,MIC,"Enterobacter spp; Enterobacter, strain EA62 (aerogenes), CDC, MHB2",2 µM
same,MIC,"Enterobacter spp; Enterobacter, strain EA547 (aerogenes), CDC, MHB2",0.25 µM
same,MIC,"Enterobacter spp; Enterobacter, strain EC544 (cloacae), CDC, MHB2",4 µM
same,MIC,"Enterobacter spp; Enterobacter, strain EC545 (cloacae), CDC, MHB2",2 µM
same,MIC,"P. aeruginosa; Pseudomonas aeruginosa, strain PA216, CDC, MHB2",1 µM
same,MIC,"P. aeruginosa; Pseudomonas aeruginosa, strain PA229, CDC, MHB2",> 16 µM
same,MIC,"P. aeruginosa; Pseudomonas aeruginosa, strain PA230, CDC, MHB2",1 µM
same,MIC,"P. aeruginosa; Pseudomonas aeruginosa, strain PA231, CDC, MHB2",1 µM
same,MIC,"E. coli; Escherichia coli, strain Eco541, CDC, MHB2",1 µM
same,MIC,"E. coli; Escherichia coli, strain Eco543, CDC, MHB2",8 µM
same,MIC,"E. coli; Escherichia coli, strain Eco546, CDC, MHB2",0.25 µM
same,MIC,"E. coli; Escherichia coli, strain Eco549, CDC, MHB2",1 µM
same,MIC,"A. baumannii; Acinetobacter baumannii, CDC AR isolate AB288 (colistin resistance not confirmed)",1 µM
same,MIC,"A. baumannii; Acinetobacter baumannii, CDC AR isolate AB300 (colistin resistance not confirmed)",1 µM
same,MIC,"A. baumannii; Acinetobacter baumannii, CDC AR isolate AB301 (colistin resistance not confirmed)",1 µM
same,MIC,"A. baumannii; Acinetobacter baumannii, CDC AR isolate AB303 (colistin resistance not confirmed)",0.5 µM
same,MIC,"A. baumannii; Acinetobacter baumannii, strain AB273, CDC, MHB2",0.5 µM
same,MIC,"A. baumannii; Acinetobacter baumannii, strain AB274, CDC, MHB2",0.25 µM
same,MIC,"A. baumannii; Acinetobacter baumannii, strain AB275 (first line r9), CDC, MHB2",0.25 µM
same,MIC,"A. baumannii; Acinetobacter baumannii, strain AB275 (second line r10), CDC, MHB2",0.5 µM
same,mean MIC,"[1]; GNB and GPB of the initial MDR panel, MHB2",lowest mean MIC
same,activity against the GPB strains,[1]; GPB strains of the initial MDR panel (Table 5),inactive
same,MIC,"E. Faecium; Enterococcus faecium, strain EF673, CDC, MHB2",> 16 µM
same,MIC,"E. Faecium; strain EF500, CDC, MHB2",>16 µM
same,MIC,"E. Faecium; strain EF671, CDC, MHB2",>16 µM
same,MIC,"E. Faecium; strain EF672, CDC, MHB2",>16 µM
same,MIC,"K. pneumoniae; Klebsiella pneumoniae, colistin-resistant CDC AR isolate KP46, read-out: MIC",4 µM
same,MIC,"K. pneumoniae; Klebsiella pneumoniae, colistin-resistant CDC AR isolate KP87, read-out: MIC",> 16 µM
same,MIC,"K. pneumoniae; Klebsiella pneumoniae, colistin-resistant CDC AR isolate KP125, read-out: MIC",8 µM
same,MIC,"K. pneumoniae; Klebsiella pneumoniae, colistin-resistant CDC AR isolate KP507, read-out: MIC",16 µM
same,MIC,"K. pneumoniae; Klebsiella pneumoniae, colistin-resistant CDC AR isolate KP1010, read-out: MIC",16 µM
same,MIC,"K. pneumoniae; Klebsiella pneumoniae, colistin-resistant CDC AR isolate KP1041, read-out: MIC",> 16 µM
same,MIC,"K. pneumoniae; Klebsiella pneumoniae, colistin-resistant CDC AR isolate KP1045, read-out: MIC",> 16 µM
same,MIC,"K. pneumoniae; Klebsiella pneumoniae, strain KP542, CDC, MHB2, read-out: MIC",> 16 µM
same,MIC,"K. pneumoniae; Klebsiella pneumoniae, strain KP548, CDC, MHB2, read-out: MIC",0.25 µM
same,MIC,"K. pneumoniae; Klebsiella pneumoniae, strain KP550, CDC, MHB2, read-out: MIC",0.25 µM
same,MIC,"K. pneumoniae; Klebsiella pneumoniae, strain KP552, CDC, MHB2, read-out: MIC",0.25 µM
same,MIC,"K. pneumoniae; strain KPA5, initial MDR panel (Table 5)",colistin-resistant phenotype
C[C@@H](O)[C@H]1C(=O)N2C(C(=O)O)=C(S[C@@H]3CN[C@H](C(=O)N(C)C)C3)[C@H](C)[C@H]12 [Mero],MIC,Enterobacter spp; strain EA518 (aerogenes),>16 µM
same,MIC,Enterobacter spp; strain EA596 (aerogenes),16 µM
same,MIC,Enterobacter spp; strain EC470 (cloacae),>16 µM
same,MIC,Enterobacter spp; strain EC560 (cloacae),16 µM
same,MIC,E. coli; strain Eco25922,0.5 µM
same,MIC,E. coli; strain YDC107,1 µM
same,MIC,E. coli; strain YDC337,8 µM
same,MIC,E. coli; strain YDC748,8 µM
same,MIC,A. baumannii; strain AB-A2,4 µM
same,MIC,A. baumannii; strain AB-A3,>16 µM
same,MIC,A. baumannii; strain AB-F8,8 µM
same,MIC,A. baumannii; strain AB-F9,8 µM
same,MIC,"K. pneumoniae; strain KP43816, read-out: MIC",1 µM
same,MIC,"K. pneumoniae; strain KPA5, read-out: MIC",2 µM
same,MIC,"K. pneumoniae; strain KPB3, read-out: MIC",2 µM
same,MIC,"K. pneumoniae; strain KPC3, read-out: MIC",1 µM
Cc1onc(-c2ccccc2)c1C(=O)N[C@@H]1C(=O)N2[C@@H]1SC(C)(C)[C@@H]2C(=O)O [Oxa],MIC,S. aureus; strain SA12212,8 µM
same,MIC,S. aureus; strain SA18710,4 µM
same,MIC,S. aureus; strain SA49775,0.25 µM
same,MIC,S. aureus; strain SA-US300,4 µM
same,MIC,E. Faecium; strain EF23614,0.25 µM
same,MIC,E. Faecium; strain EF24670,>16 µM
same,MIC,E. Faecium; strain EF26215,2 µM
same,MIC,E. Faecium; strain EF26692,2 µM
NC[C@H]1O[C@H](O[C@H]2[C@H](O)[C@@H](O[C@H]3O[C@H](CO)[C@@H](O)[C@H](N)[C@H]3O)[C@H](N)C[C@@H]2N)[C@H](N)C[C@@H]1O [Tob],MIC,Enterobacter spp; strain EA518 (aerogenes),>16 µM
same,MIC,Enterobacter spp; strain EA596 (aerogenes),>16 µM
same,MIC,Enterobacter spp; strain EC470 (cloacae),4 µM
same,MIC,Enterobacter spp; strain EC560 (cloacae),>16 µM
same,MIC,P. aeruginosa; strain PA01,1 µM
same,MIC,P. aeruginosa; strain PA14,0.5 µM
same,MIC,P. aeruginosa; strain PA97-5,>16 µM
same,MIC,P. aeruginosa; strain PA129-5,16 µM
same,MIC,E. coli; strain YDC337,>16 µM
same,MIC,E. coli; strain YDC748,16 µM
same,MIC,A. baumannii; strain AB-A2,0.5 µM
same,MIC,A. baumannii; strain AB-A3,16 µM
same,MIC,A. baumannii; strain AB-F8,>16 µM
same,MIC,A. baumannii; strain AB-F9,2 µM
same,MIC,"K. pneumoniae; strain KPA5, read-out: MIC",>16 µM
same,MIC,"K. pneumoniae; strain KPB3, read-out: MIC",>16 µM
CC(C)C[C@H](NC(=O)[C@H](Cc1ccccc1)NC(=O)[C@@H]1CCCN1C(=O)[C@H](Cc1c[nH]c2ccccc12)NC(=O)[C@H](Cc1c[nH]c2ccccc12)NC(=O)[C@H](Cc1c[nH]c2ccccc12)NC(=O)[C@@H]1CCCN1C(=O)[C@H](Cc1ccccc1)NC(=O)[C@H](CCCNC(=N)N)NC(=O)[C@H](CCCNC(=N)N)NC(=O)[C@@H](N)C(C)C)C(=O)N[C@@H](CCCNC(=N)N)C(=O)N[C@@H](CCCNC(=N)N)C(=O)O [tritrpticin],mean MIC,[1],> 10 µM
RRVWRRVRRVWRRVRRVVRRVW [E71],MIC,E. coli,1 µM
same,cross-resistance with colistin,[2],no cross-resistance at all
RRVWRRVRRVWRRVRRVWRRVV [E75],MIC,P. aeruginosa,13 µM
RRWVRRVRRVWRRVRRVVRRWV [E4],cross-resistance with colistin,[2],no cross-resistance at all
RRWVRWVRRWVRWVRR [E80],MIC,P. aeruginosa,2 µM
RVWRRVRRVWRRVRRVWRRV [E69],MIC,P. aeruginosa,2 µM
RWVRRVRRWVRRVRRVVRRW [E70],cross-resistance with colistin,[2],no cross-resistance at all
RWVRRVRRWVRRVRRWVRRV [E68],cross-resistance with colistin,[2],no cross-resistance at all
